Legend:
[1] = target: T1, GacA (dTDP-4-dehydrorhamnose reductase, RmlD) (Streptococcus pyogenes, UniProt Q9A0G6); assay: SPR (Biacore T200), equilibrium fit, […]°C; type: binding
T1 construct: full-length gacA (AAZ51220.1; M5005_Spy_0602), chemically biotinylated

[2] = target: the molecule itself; assay: SEC; size-exclusion chromatography of purified wild-type SeRmlD and triple mutant, retention compared with GacA

T1 sequence (Q9A0G6 entry or part of it): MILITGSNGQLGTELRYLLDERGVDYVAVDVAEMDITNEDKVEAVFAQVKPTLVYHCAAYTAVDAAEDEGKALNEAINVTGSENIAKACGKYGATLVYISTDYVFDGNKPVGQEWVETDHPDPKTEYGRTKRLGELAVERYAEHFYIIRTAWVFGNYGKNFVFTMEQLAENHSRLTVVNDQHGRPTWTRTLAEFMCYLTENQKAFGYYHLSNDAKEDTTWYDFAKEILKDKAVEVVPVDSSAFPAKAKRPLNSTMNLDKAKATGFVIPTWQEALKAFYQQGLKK

Molecule | Kd [1] [µM] | stoichiometry N [2]
NC(=O)C1=CN([C@@H]2O[C@H](COP(=O)(O)OP(=O)(O)OC[C@H]3O[C@@H](n4cnc5c(N)ncnc54)[C@H](O)[C@@H]3O)[C@@H](O)[C@H]2O)C=CC1 [NADH] | 110 | 
NC(=O)C1=CN([C@@H]2O[C@H](COP(=O)(O)OP(=O)(O)OC[C@H]3O[C@@H](n4cnc5c(N)ncnc54)[C@H](OP(=O)(O)O)[C@@H]3O)[C@@H](O)[C@H]2O)C=CC1 [NADPH] | 390 | 
RmlD (dTDP-4-dehydrorhamnose reductase) from Salmonella enterica serovar Typhimurium, wild type (enzyme, Salmonella enterica (LT2), UniProt P26392 1-299, looked up, RmlD, Salmonella enterica serovar Typhimurium LT2, full-length rmlD (GI 16420628); also called SeRmlD; wild-type SeRmlD; source: E. coli BL21(DE3), expressed and purified as described for GacA; not shown: His6, N-terminal, cleaved; GST, N-terminal, cleaved) MNILLFGKTGQVGWELQRSLAPVGNLIALDVHSKEFCGDFSNPKGVAETVRKLRPDVIVNAAAHTAVDKAESEPELAQLLNATSVEAIAKAANETGAWVVHYSTDYVFPGTGDIPWQETDATSPLNVYGKTKLAGEKALQDNCPKHLIFRTSWVYAGKGNNFAKTMLRLAKERQTLSVINDQYGAPTGAELLADCTAHAIRVALNKPEVAGLYHLVAGGTTTWHDYAALVFDEARKAGITLALTELNAVPTSAYPTPASRPGNSRLNTEKFQRNFDLILPQWELGVKRMLTEMFTTTTI |  | 2

From publication PMC4832382, “GacA is essential for Group A S treptococcus and defines a new class of monomeric dTDP‐4‐dehydrorhamnose reductases (RmlD)” (Molecular Microbiology, 2015)
